In patent US20220280507A1, “USES OF 5-METHYLTETRAHYDROFOLATE AND ITS COMPOSITION” (Lianyungang Jinkang Hexin Pharmaceutical Co., Ltd., priority 2019, published 2022):
Where two headings read alike, the source gives them in different places.

Experiments:
[1] = Alcoholic fatty liver model, body weight during administration period; assay type: in vivo, SD rats; conditions: liquor model
Protocol: (§1) According to their weight, they were randomly divided into vehicle control group (purified water, ig), model control group (liquor, 10 ml·Kg−1), positive control group (bicyclol, 50 mg·Kg−1, ig), folic acid calcium salt high-dose group (4 mg·Kg−1), folic acid calcium salt medium-dose group (2 mg·Kg−1), folic acid calcium salt low-dose group (1 mg·Kg−1), in half female and half male, and 16 rats in each group. Purified water was used as a negative control, and bicyclol (place of origin: Beijing Xiehe Pharmaceutical Factory, specification: 25 mg/tablet, batch number: H20040467) was used as a positive control drug. Route of administration: all were administered by oral gavage. Dosage of administration: 1 mg·Kg−1, 2 mg·Kg−1, and 4 mg·Kg−1. Frequency of administration: once a day for 60 consecutive days.
(§2) Method of administration: administration started at prescribed doses on the day of modeling for 60 consecutive days and ended at the 60th day. At the same time, rats in each group were weighed every other week during administration period to monitor their body weight changes. On the 61st day, rats were dissected and serum was collected for determination of triglyceride (TG), total cholesterol (TC), malondialdehyde (MDA), superoxide dismutase (SOD) and liver histopathologic examination. The brain tissue of rats was taken out, and hippocampus tissue was separated on ice plate, prepared to homogenate with a mass fraction of 10% with purified water, then the homogenate was centrifuged to obtain supernatant. ELISA was used to detect the levels of inflammatory factors TNF-α and IL-1β in hippocampus tissue with continuous spectrum scanning microplate reader.

TNF-α = assay: Alcoholic fatty liver model, TNF-α in hippocampus tissue (ELISA); assay type: in vivo, SD rats; conditions: liquor model, n=16
Protocol: as §1, §2

alcohol drinking rats = assay: Disappearance and recovery of righting reflex of alcohol drinking rats; assay type: in vivo, SD rats; conditions: 30 min before Erguotou 9 ml·Kg−1, n=6
Protocol: Experiment 1 Effect of 5-methyltetrahydrofolate on disappearance and recovery of righting reflex of alcohol drinking rats.
30 SPF-grade SD rats were chosen in half male and half female, and divided into 5 groups with 6 rats in each group, including normal group, model group, positive drug group (Weihe Liver Protectant), 5-methyltetrahydrofolate administration group (4 mg·Kg−1 medium dose group, 8 mg·Kg−1 high dose group, respectively). After fasting for 12 h, the administration group was given Weihe Liver Protectant at 50 mg·kg−1, 5-methyltetrahydrofolate (Jinkang Hexin product) at 4 mg·Kg−1, 5-methyltetrahydrofolate (Jinkang Hexin product) at 8 mg·Kg−1, respectively. […] The intoxication in rats depends on righting reflex disappearing, that is, cover the head of the rat with gauze, and gently place the rat back down in the animal cage. […] The disappearance time and recovery time of the righting reflex in rats after drinking were recorded.

brain tissue of rats = conditions: n=5
Protocol: Experiment 11 Effects of Drinking and 5-Methyltetrahydrofolate on the Concentrations of Formaldehyde and Formate in the Brain of Rats
The concentrations of formaldehyde and formate, as well as those of serotonin and dopamine in brain tissue of rats were detected at this time. SPF-grade female SD rats, fasted overnight, were divided into 4 groups.
(1) Ethanol group, with intragastric administration of ethanol at a dose of 1 g/kg respectively at 1, 2, 3 h, n=5; (2) control group, with intragastric administration of glucose at a dose of 1.6 g/kg (equivalent to alcohol calories) respectively at 1, 2, and 3 h, n=5; (3) 5-methyltetrahydrofolate group, with intragastric administration of 5-methyltetrahydrofolate calcium at a dose of 4 mg/kg at 0 h, followed by glucose at a dose of 1.6 g/kg (equivalent to alcohol calories) respectively at 1, 2, and 3 h, n=5; (4) 5-methyltetrahydrofolate alcohol group, with intragastric administration of 5-methyltetrahydrofolate calcium at a dose of 4 mg/kg at 0 h, followed by ethanol at a dose of 1 g/kg respectively at 1, 2, and 3 h, n=5.
Gas chromatography was used to detect methanol and ethanol concentrations in blood of rats, and HPLC was used to detect formaldehyde concentration in brain tissue. 0.1 g of brain tissue was taken and 0.5 ml of SDN lysate was added to make homogenate, then 0.5 ml of trifluoroacetic acid was added. The sample was centrifuged at 4° C., 0.4 ml of supernatant was collected, 0.1 ml DNPH (1 g/L) was added, mixed and incubated in 60° C. water bath for 30 min, centrifuged at 4° C., and supernatant was collected to detect formaldehyde concentration. Fluorescence spectrometry was used to detect formate concentration in brain. Serotonin and dopamine enzyme-linked immunosorbent reagent was used to detect neurotransmitters in brain in strict accordance with the instructions.

[2] = 5-methyltetrahydrofolate calcium 4 mg/kg ig at 0 h + ethanol 1 g/kg at 1, 2, 3 h, 24 h after drinking
[3] = 5-methyltetrahydrofolate calcium 4 mg/kg ig at 0 h + glucose 1.6 g/kg at 1, 2, 3 h, 24 h

5-methyltetrahydrofolate calcium
Body weight ([1]; 1 mg·kg−1·d−1 ig, Week 0, n=16): 195.64 g
Body weight ([1]; 1 mg·kg−1·d−1 ig, Week 1, n=16): 215.16 g
Body weight ([1]; 1 mg·kg−1·d−1 ig, Week 2, n=16): 282.30 g
Body weight ([1]; 1 mg·kg−1·d−1 ig, Week 3, n=16): 299.34 g
Body weight ([1]; 1 mg·kg−1·d−1 ig, Week 4, n=16): 312.99 g
Body weight ([1]; 1 mg·kg−1·d−1 ig, Week 5, n=16): 317.48 g
Body weight ([1]; 1 mg·kg−1·d−1 ig, Week 6, n=16): 334.47 g
Body weight ([1]; 1 mg·kg−1·d−1 ig, Week 7, n=16): 355.89 g
Body weight ([1]; 1 mg·kg−1·d−1 ig, Week 8, n=16): 375.85 g
Body weight ([1]; 2 mg·kg−1·d−1 ig, Week 0, n=16): 190.85 g
Body weight ([1]; 2 mg·kg−1·d−1 ig, Week 1, n=16): 219.44 g
Body weight ([1]; 2 mg·kg−1·d−1 ig, Week 2, n=16): 274.69 g
Body weight ([1]; 2 mg·kg−1·d−1 ig, Week 3, n=16): 293.12 g
Body weight ([1]; 2 mg·kg−1·d−1 ig, Week 4, n=16): 321.78 g
Body weight ([1]; 2 mg·kg−1·d−1 ig, Week 5, n=16): 328.10 g
Body weight ([1]; 2 mg·kg−1·d−1 ig, Week 6, n=16): 345.05 g
Body weight ([1]; 2 mg·kg−1·d−1 ig, Week 7, n=16): 352.90 g
Body weight ([1]; 2 mg·kg−1·d−1 ig, Week 8, n=16): 383.69 g
Body weight ([1]; 4 mg·kg−1·d−1 ig, Week 0, n=16): 196.33 g
Body weight ([1]; 4 mg·kg−1·d−1 ig, Week 1, n=16): 218.24 g
Body weight ([1]; 4 mg·kg−1·d−1 ig, Week 2, n=16): 285.54 g
Body weight ([1]; 4 mg·kg−1·d−1 ig, Week 3, n=16): 296.05 g
Body weight ([1]; 4 mg·kg−1·d−1 ig, Week 4, n=16): 307.43 g
Body weight ([1]; 4 mg·kg−1·d−1 ig, Week 5, n=16): 321.49 g
Body weight ([1]; 4 mg·kg−1·d−1 ig, Week 6, n=16): 349.47 g
Body weight ([1]; 4 mg·kg−1·d−1 ig, Week 7, n=16): 372.49 g
Body weight ([1]; 4 mg·kg−1·d−1 ig, Week 8, n=16): 392.02 g
TNF-α in hippocampus tissue (TNF-α; 1 mg·kg−1·d−1 ig 60 d): 250.39 ± 32.40 μg · g^−1 prot
TNF-α in hippocampus tissue (TNF-α; 2 mg·kg−1·d−1 ig 60 d): 241.32 ± 29.32 μg · g^−1 prot
TNF-α in hippocampus tissue (TNF-α; 4 mg·kg−1·d−1 ig 60 d): 220.43 ± 24.34 μg · g^−1 prot

CN1c2c([nH]c(N)nc2=O)NCC1CNc1ccc(C(=O)N[C@@H](CCC(=O)O)C(=O)O)cc1 (stereo partly drawn) [5-methyltetrahydrofolate, N-[4-[[(2-amino-1,4,5,6,7,8-hexahydro-4-oxo-5-methyl-(6S), -(6R), and (6R,S)-pteridyl)methyl)amino)toluoyl-glutamic acid]
Disappearance time (righting reflex) (alcohol drinking rats; 4 mg·Kg−1 (medium)): 30.1 ± 14.4 min
Recovery time (righting reflex) (alcohol drinking rats; 4 mg·Kg−1 (medium)): 78.5 ± 14.5 min
Disappearance time (righting reflex) (alcohol drinking rats; 8 mg·Kg−1 (high)): 42.3 ± 15.6 min
Recovery time (righting reflex) (alcohol drinking rats; 8 mg·Kg−1 (high)): 64.1 ± 14.5 min
5-hydroxytryptamine in brain tissue (brain tissue of rats; [2]): 0.10 ± 0.1 µg/L
Dopamine in brain tissue (brain tissue of rats; [2]): 27 ± 4 ng/L
Formaldehyde in brain tissue (brain tissue of rats; [2]): 1.14 ± 0.31 mg/L
Formate in brain tissue (brain tissue of rats; [2]): 5.5 ± 0.4 mg/L
5-hydroxytryptamine in brain tissue (brain tissue of rats; [3]): 0.12 ± 0.04 µg/L
Dopamine in brain tissue (brain tissue of rats; [3]): 35 ± 3 ng/L
Formaldehyde in brain tissue (brain tissue of rats; [3]): 0.39 ± 0.11 mg/L
Formate in brain tissue (brain tissue of rats; [3]): 2.1 ± 0.2 mg/L
